From PubChem BioAssay AID1259407 (Chemical Carcinogenesis Research Information System (CCRIS), 2018) come the findings set out here.

Calls of active or inactive are those of the source. No rule for the calls is given here.

For the data set, the system named is CCRIS mutagenicity, Ames/micronucleus/aberration tests. Briefly: CCRIS mutagenicity studies.
[1] abbreviates: Test System: AMES SALMONELLA TYPHIMURIUM, Strain/Indicator: TA98, Metabolic Activation: NONE, Method: PREINCUBATION
Setting [2] is: Test System: AMES SALMONELLA TYPHIMURIUM, Strain/Indicator: TA98, Metabolic Activation: RAT, LIVER, S-9, AROCLOR 1254, Method: PREINCUBATION
The mark [3] stands for this setting: Test System: AMES SALMONELLA TYPHIMURIUM, Strain/Indicator: TA100, Metabolic Activation: NONE, Method: PREINCUBATION
Where [4] appears, read: Test System: AMES SALMONELLA TYPHIMURIUM, Strain/Indicator: TA100, Metabolic Activation: RAT, LIVER, S-9, AROCLOR 1254, Method: PREINCUBATION
The mark [5] stands for this setting: Test System: AMES SALMONELLA TYPHIMURIUM, Strain/Indicator: TA98, Metabolic Activation: RAT, LIVER, S-9, AROCLOR 1254, Method: STANDARD PLATE.
The mark [6] stands for this setting: Test System: AMES SALMONELLA TYPHIMURIUM, Strain/Indicator: TA98, Metabolic Activation: NONE, Method: STANDARD PLATE.
[7] abbreviates: Test System: AMES SALMONELLA TYPHIMURIUM, Strain/Indicator: TA98, Metabolic Activation: RAT, LIVER, S-9, AROCLOR 1254 (10%), Method: PREINCUBATION
The mark [8] stands for this setting: Test System: AMES SALMONELLA TYPHIMURIUM, Strain/Indicator: TA100, Metabolic Activation: RAT, LIVER, S-9, AROCLOR 1254 (10%), Method: PREINCUBATION
Setting [9] is: Test System: AMES SALMONELLA TYPHIMURIUM, Strain/Indicator: TA97, Metabolic Activation: NONE, Method: PREINCUBATION
The mark [10] stands for this setting: Test System: AMES SALMONELLA TYPHIMURIUM, Strain/Indicator: TA1535, Metabolic Activation: NONE, Method: PREINCUBATION

As to `N#C[S-].N#C[S-].N#C[S-].N#C[S-].N#C[S-].N#C[S-].[K+].[K+].[Pt+4]`, the mutagenic call reads like this: under setting [1], “inactive; negative”; under setting [2], “inactive; negative”; under setting [3], “inactive; negative”; under setting [4], “inactive; negative”.

`CC(=O)N(Nc1ccc2c(c1)Cc1ccccc1-2)c1ccc2c(c1)Cc1ccccc1-2`: the mutagenic call under setting [5] was “active; positive”.

On to `O=C1Cc2cc3cc([N+](=O)[O-])ccc3cc2[C@H](O)[C@H]1O`, for which the mutagenic call was “inactive; negative” under setting [6] and “inactive; negative” under setting [5].

As to `OCC(O)CI` (stereo unspecified), the mutagenic call is, setting by setting: (Test System: AMES SALMONELLA TYPHIMURIUM, Strain/Indicator: TA98, Metabolic Activation: HAMSTER, LIVER, S-9, AROCLOR 1254 (30%), Method: PREINCUBATION) “inactive; negative”; under setting [1], “inactive; negative”; (Test System: AMES SALMONELLA TYPHIMURIUM, Strain/Indicator: TA98, Metabolic Activation: RAT, LIVER, S-9, AROCLOR 1254 (30%), Method: PREINCUBATION) “inactive; negative”; (Test System: AMES SALMONELLA TYPHIMURIUM, Strain/Indicator: TA100, Metabolic Activation: HAMSTER, LIVER, S-9, AROCLOR 1254 (30%), Method: PREINCUBATION) “active; positive”; under setting [3], “active; positive”; (Test System: AMES SALMONELLA TYPHIMURIUM, Strain/Indicator: TA100, Metabolic Activation: RAT, LIVER, S-9, AROCLOR 1254 (30%), Method: PREINCUBATION) “active; positive”.

On to `O=C1c2ccccc2C(=O)c2cc(O)ccc21`, for which the mutagenic call under setting [1] is “active; positive”, the mutagenic call under setting [7] is “active; positive”, the mutagenic call under setting [3] is “inactive; negative” and the mutagenic call under setting [8] is “inactive; negative”.

Take `CC(=O)Nc1ccc(N)cc1`: the mutagenic call is “inactive; negative” (Test System: AMES SALMONELLA TYPHIMURIUM, Strain/Indicator: TA97, Metabolic Activation: HAMSTER, LIVER, S-9, AROCLOR 1254 (10%), Method: PREINCUBATION); “inactive; negative” under setting [9]; “inactive; negative” (Test System: AMES SALMONELLA TYPHIMURIUM, Strain/Indicator: TA97, Metabolic Activation: RAT, LIVER, S-9, AROCLOR 1254 (10%), Method: PREINCUBATION); “active; positive” (Test System: AMES SALMONELLA TYPHIMURIUM, Strain/Indicator: TA98, Metabolic Activation: HAMSTER, LIVER, S-9, AROCLOR 1254 (10%), Method: PREINCUBATION); “inactive; negative” under setting [1]; “active; positive” under setting [7]. Besides, the mutagenic call was “inactive; negative” (Test System: AMES SALMONELLA TYPHIMURIUM, Strain/Indicator: TA100, Metabolic Activation: HAMSTER, LIVER, S-9, AROCLOR 1254 (10%), Method: PREINCUBATION); “inactive; negative” under setting [3]; “inactive; negative” under setting [8]; “inactive; negative” (Test System: AMES SALMONELLA TYPHIMURIUM, Strain/Indicator: TA1535, Metabolic Activation: HAMSTER, LIVER, S-9, AROCLOR 1254 (10%), Method: PREINCUBATION); “inactive; negative” under setting [10]; “inactive; negative” (Test System: AMES SALMONELLA TYPHIMURIUM, Strain/Indicator: TA1535, Metabolic Activation: RAT, LIVER, S-9, AROCLOR 1254 (10%), Method: PREINCUBATION). Also, the mutagenic call (Test System: Ames Salmonella typhimurium, Strain/Indicator: TA98, Metabolic Activation: None, Method: Standard Plate) is “inactive; negative”; the mutagenic call (Test System: Ames Salmonella typhimurium, Strain/Indicator: TA100, Metabolic Activation: None, Method: Standard Plate) is “inactive; negative”; the mutagenic call (Test System: Ames Salmonella typhimurium, Strain/Indicator: TA102, Metabolic Activation: None, Method: Standard Plate) was “inactive; negative”; the mutagenic call (Test System: Ames Salmonella typhimurium, Strain/Indicator: TA1535, Metabolic Activation: None, Method: Standard Plate) was “inactive; negative”; the mutagenic call (Test System: Ames Salmonella typhimurium, Strain/Indicator: TA1537, Metabolic Activation: None, Method: Standard Plate) was “inactive; negative”; the mutagenic call (Test System: UDS RODENT HEPATOCYTES, Strain/Indicator: THY INCORP (NON-S-PHASE), Metabolic Activation: NONE, Method: AUTORADIOGRAPHY) was “inactive; negative”.

In the case of `CC(=O)[C@]1(C)O[C@@]12C=Cc1ccccc1C2=O`, under setting [3], the mutagenic call was “inactive; negative”.

In the case of `COc1cc(-c2nc(-c3ccccc3)c(-c3ccccc3)[nH]2)ccc1O`, the mutagenic call runs as follows: under setting [6], “inactive; negative”; (Test System: AMES SALMONELLA TYPHIMURIUM, Strain/Indicator: TA98, Metabolic Activation: RAT LIVER S-9, 3-METHYLCHOLANTHRENE, SODIUM PHENOBARBITAL, Method: STANDARD PLATE) “inactive; negative”; (Test System: AMES SALMONELLA TYPHIMURIUM, Strain/Indicator: TA100, Metabolic Activation: NONE, Method: STANDARD PLATE) “active; positive”.

As for `O=[N+]([O-])c1ccc(Nc2ccc(Nc3ccccc3)c(S(=O)(=O)O)c2)c([N+](=O)[O-])c1`, the mutagenic call was “active; positive” (Test System: AMES SALMONELLA TYPHIMURIUM, Strain/Indicator: TA97, Metabolic Activation: HAMSTER, LIVER, S-9, AROCLOR 1254, Method: PREINCUBATION); “active; positive” under setting [9]; “active; positive” (Test System: AMES SALMONELLA TYPHIMURIUM, Strain/Indicator: TA97, Metabolic Activation: RAT, LIVER, S-9, AROCLOR 1254, Method: PREINCUBATION); “active; positive” (Test System: AMES SALMONELLA TYPHIMURIUM, Strain/Indicator: TA98, Metabolic Activation: HAMSTER, LIVER, S-9, AROCLOR 1254, Method: PREINCUBATION); “active; positive” under setting [1]; “active; positive” under setting [2]. Also, the mutagenic call by setting is: (Test System: AMES SALMONELLA TYPHIMURIUM, Strain/Indicator: TA100, Metabolic Activation: HAMSTER, LIVER, S-9, AROCLOR 1254, Method: PREINCUBATION) “active; positive”; under setting [3], “active; positive”; under setting [4], “active; positive”; (Test System: AMES SALMONELLA TYPHIMURIUM, Strain/Indicator: TA1535, Metabolic Activation: HAMSTER, LIVER, S-9, AROCLOR 1254, Method: PREINCUBATION) “inactive; negative”; under setting [10], “inactive; negative”; (Test System: AMES SALMONELLA TYPHIMURIUM, Strain/Indicator: TA1535, Metabolic Activation: RAT, LIVER, S-9, AROCLOR 1254, Method: PREINCUBATION) “inactive; negative”.
